Earlier results in patent US20040121025A1, “Oral composition for the treatment and prevention of bone loss” (priority 2002, published 2004).

Tests used:
[1] = tested on: bone demineralization / bone loss; conditions: with supplemental calcium
[2] = tested on: parathyroid hormone, vitamin D, prostaglandin E2, and interleukin 1-beta; conditions: animal study, prostaglandin E2, interleukin 1-beta
[3] = tested on: parathyroid-stimulated osteoclastic activity; conditions: ipriflavone supplementation in rats
estrogen like effects = conditions: unlike many of the other isoflavones
bone mass [4] = tested on: bone mass
osteoporosis [5] = conditions: elderly women over the age of 65
bone loss [6] = conditions: men
bone mass [7] = conditions: 200 mg three times daily; two years; women age 50-65; placebo groups had significant bone loss
osteoporosis [8] = conditions: including a form of vitamin D commonly used for osteoporosis
bone mineral density = conditions: women treated with Lupron for six months; supplemental calcium; placebo decreased significantly
bone loss [9] = conditions: premenopausal women
bone loss [10] = conditions: animal studies
bone loss [11] = conditions: animal studies; remark: listed apart in the source

## CC(C)Oc1ccc2c(=O)c(-c3ccccc3)coc2c1 [ipriflavone, 7-isopropoxysioflavone]
[1]; post-menopausal women or women who have had their ovaries removed
  safety and efficacy in halting bone loss: safe and effective in halting bone loss
[1]; postmenopausal women
  halting bone demineralization: effective in halting bone demineralization
[2]
  inhibition of compounds involved in increased resorption of bone: inhibited a number of compounds known to be involved in increased resorption of bone
[3]
  parathyroid-stimulated osteoclastic activity and resulting hypercalcemia: inhibited in a dosedependent manner
Estrogen like effects
  estrogen like effects: does not exhibit estrogen like effects
Bone mass [4]; 0.15-0.30 mg/day estrogen with ipriflavone versus 0.625 mg/day or higher
  maintaining bone mass with lower doses of estrogen: equally effective in maintaining bone mass
Bone mass [4]; in vivo
  effect on the effects of estrogen on bone: enhance the effects of estrogen on bone
Osteoporosis [5]
  treatment of osteoporosis: particularly effective
Bone loss [6]
  preventing bone loss: effective in preventing bone loss in men
Bone mass [7]
  bone mass: maintained or improved slightly
Osteoporosis [8]
  effect on other bone-preserving agents: enhance the effect of other bone-preserving agents
Bone mineral density
  bone density: no changes in bone density
Bone loss [9]
  rapid bone loss that follows ovariectomy: prevents the rapid bone loss that follows ovariectomy
Bone loss [10]
  bone loss associated with long term steroid use: inhibited bone loss
Bone loss [11]
  bone loss associated with immobilization: inhibited bone loss
